In data set [1] the test system is seedling blight of rice plant (pathogen Fusarium sp. and Rhizoctonia sp.). The data set can be described thus: Exterminating test on seedling blight of rice plant (Experimental Example 1). It counts as in vivo. An outline of the steps:
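Pathogen-contaminated nursery soil (Fusarium sp., Rhizoctonia sp.) mixed with 5% compound dust at 5 g per box; Nihonbare rice sown, grown 7 days at 17° C in lighting chamber, then moved to field. Assessed 10 days later as percentage of healthy seedlings; commercial 4% hydroxyisoxazol dust run as control.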

Data set [2] relates to Rhizoctonia solani (damping-off of cucumber). Nature of the data set: Exterminating test on damping-off of cucumber (Experimental Example 3). It counts as in vivo. An outline of the steps: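 Percentage of healthy seedlings was scored 10 days post inoculation, with PCNB 50% wettable powder run alongside as reference. Each pot held 10 Azumamidori cucumber seeds in field soil carrying 5 g Rhizoctonia solani. Soil drench: 50 ml water suspension of 80% wettable powder; greenhouse.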

Data set [3] concerns Fusarium wilt of cucumber. Nature of the data set: Exterminating test on Fusarium wilt of cucumber (Experimental Example 4). It counts as in vivo, Fusarium oxysporum f, cucumerinum. To be noted: for pest or weed control at 500 ppm: Fusarium, 336 h, read-out: Percentage of healthy seedlings. An outline of the steps: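 Pots of steam-sterilized soil mixed with 20 g infested soil, sown with 18 cucumber seeds (Tokiwazibai), drenched with 100 ml aqueous suspension of 80% wettable powder. Benlate 50% wettable powder run as control. Disease scored two weeks after planting as percentage of healthy seedlings.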

Data set [4] concerns Aspergillus niger. Nature of the data set: Minimum inhibitory concentration, dilution methods (Example 14). To be noted: (1) potato-dextrose agar dilution method. In kind it is cell-based. The text has this: (§1) Bacteriocidal activity and fungicidal activity of the active compounds of the present invention were examined by potato-dextrose agar dilution method, [2] waxman's liquid medium dilution method or [3] glucose bouillon medium dilution method. The results are shown in Table 4 below as the minimum inhibitory concentration (the minimum concentration of active compound found to produce 100% control of the test bacteria and fungi).

The subject of data set [5] is Bacillus subtilis. The description is as above. In kind it is cell-based. To be noted: (3) glucose bouillon medium dilution method.
Source text: as §1

Data set [6] relates to Cladosporium harbarum. The description is as above. In kind it is cell-based. To be noted: (1) potato-dextrose agar dilution method.
Source text: as §1

The test system of data set [7] is Escherichia coli. The description is as above. It counts as cell-based. To be noted: (3) glucose bouillon medium dilution method.
Source text: as §1

For data set [8], the system named is Penicillium Citrinum. Described as above. The following applies: (1) potato-dextrose agar dilution method. In kind it is cell-based.
Source text: as §1
(In general: Agar dilution tests growth on a series of plates holding different concentrations.)

In data set [9] the test system is Staphylococcus aureus. The data set is described as above. In kind it is cell-based. The following applies: (3) glucose bouillon medium dilution method.
Source text: as §1

The subject of data set [10] is Aspergillus niger, Penicillium citrinum, Cladosporium harbarum and chaetomium globosum. Nature of the data set: Degree of growth inhibition of fungi on treated beach plates (Example 17). The following applies: numerical rating, 2 weeks. Also on record: scale not given here. It counts as cell-based. An outline of the steps: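 Beech plates were dipped for 2 minutes in emulsifiable concentrate diluted 400- and 800-fold in water, then dried for 24 hours. They were laid on agar and sprayed with spores of each fungus, then incubated at 95% humidity and 28° C for 2 weeks. Growth inhibition was scored on a numerical rating scale.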

Data set [11] relates to Aspergillus niger. The data set can be described thus: Growth inhibition zone around treated cotton cloth (Example 18). It counts as cell-based. The following applies: emulsifiable concentrate diluted 1000 times. The procedure:
(§2) The emulsifiable concentrates which were prepared by Example 10 were diluted with water 1000 times to form an emulsion. A cloth of cotton was soaked into each emulsion for 2 minutes. The clothes were dried at room temperature and cut into a square of which a side was 1 cm long. Each kind of test bacteria and fungi was inoculated, separately on plates of potato-agar and one square cloth was placed on each of such plates. Test bacteria and fungi were cultivated at 28° C for 4 days. The width of the region of growth-inhibition which was formed a circumference of the cloth was examined.

The test system of data set [12] is Bacillus subtilis. The description is as above. It counts as cell-based. To be noted: emulsifiable concentrate diluted 1000 times. The procedure:
as §2

For data set [13], the system named is Penicillium Citrinum. The description is as above. The following applies: emulsifiable concentrate diluted 1000 times. It counts as cell-based. The procedure: as §2
The subject of data set [14] is Staphylococcus aureus. Described as above. It counts as cell-based. To be noted: emulsifiable concentrate diluted 1000 times. The method, then: as §2
Data set [15] has as its system botrytis cinerea (gray mold). Nature of the data set: Exterminating test on gray mold of tomato (Experimental Example 5). In kind it is in vivo. Also on record: scale not given here. The following applies: 1,000 ppm, 48 hours after inoculation, kidney bean leaves. The method, then:
Exterminating test on gray mold of tomato The seedlings of kidney beans (variety: Orient) of 5-6 leaves stage were employed in this test. Eighty percent (80%) wettable powder of the present invention was diluted with water and sprayed over the seedlings in an amount of 10 ml per pot. The leaves were cut from the plant at 24 hours after spraying, and placed in the petri dishes (12 cm in diameter). Thereafter disks (5 mm in diameter) were cut with a cork borer from potato dextrose agar on which the pathogen (botrytis cinerea) was cultured. The disks were placed on the leaves. The dishes were placed in such a moistural condition as to cause the pathogen to propagate. Thiophanate methyl 70% wettable powder on the market was used as a control and tested by the same method. After forty eight (48) hours after inoculation, diameters of the lesions were observed, and an "Effect Index" was calculated as follows; [formula]

In data set [16] the test system is seedlings of kidney beans (variety: Orient). Nature of the data set: Phytotoxicity on kidney beans (Experimental Example 5). In kind it is in vivo. To be noted: 1,000 ppm.
For the next data set, the system named is summer orange seedlings. Nature of the data set: Phytotoxicity on summer orange seedlings (Experimental Example 6). In kind it is in vivo. To be noted: 1,000 ppm.
Data set [17] has as its system Aspergillus niger. The data set can be described thus: Minimum inhibitory amount, dilution methods (Example 24). In kind it is cell-based. The text has this:
(§3) Bactericidal activity and fungicidal activity of the active compounds of the present invention were examined by potato-dextrose agar dilution method, or [2] glucose bouillon medium dilution method. The results are shown in Table 10 below as the minimum inhibitory concentration (the minimum concentration of active compound found to produce 100% control of the test bacteria and fungi).

The test system of data set [18] is Bacillus subtilis. The data set is described as above. It counts as cell-based.
Source text: as §3

The test system of data set [19] is Cladosporium harbarum. Described as above. In kind it is cell-based.
Source text: as §3

Data set [20] concerns Escherichia coli. The data set is described as above. In kind it is cell-based.
Source text: as §3

Data set [21] concerns Penicillium Citrinum. The data set is described as above. In kind it is cell-based.
Source text: as §3

Data set [22] has as its system Staphylococcus aureus. The data set is described as above. In kind it is cell-based.
Source text: as §3

In data set [23] the test system is bacteria gathered from circular water system. The data set can be described thus: Degree of propagation on slime test boards (Example 27). It counts as cell-based. The following applies: shaking culture for 2 days. An outline of the steps: (§4)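 Wood slime test boards were soaked in Waxman's liquid medium holding 0.02 part active compound (as 10% water-soluble concentrate) per 100 parts medium. Medium was inoculated with bacteria from a circular water system, fungi or green algae and shake-cultured 2 days at 27°-34° C. Propagation on the boards was scored with symbols.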

The subject of a further data set is fungi. Described as above. It counts as cell-based. To be noted: same method, shaking culture for 2 days. An outline of the steps: as §4
Another data set deals with green algae. Described as above. In kind it is cell-based. The following applies: same method, shaking culture for 2 days. In short, it runs like this: as §4
In data set [24] the test system is Bacteria, fungi and slime. The data set can be described thus: Inhibition of bacteria, fungi and slime in use (Example 23). The following applies: water soluble concentrate; 10-20 ppm in water, 0.01-0.1% in pastes. The method, then: Before application, the concentrate was diluted 500-1000 times with water and sprayed on the inside of cotes to prevent the growth of bacteria and fungi.
The solution was added to water in circular water systems to inhibit the growth of slime. The concentration of Compound No. 21 in the water was 10-20 ppm.
An amount of 0.01-0.1% of Compound No. 21 as the solution was added to pastes or binding agents to prevent rottenness of them.

The subject of data set [25] is cucumber (variety; Tokiwazibai). Nature of the data set: Phytotoxicity on cucumber (Experimental Example 4). In kind it is in vivo. To be noted: 500 ppm. The method, then: Exterminating test on Fusarium wilt of cucumber Twenty (20) grams of infected soil was added uniformly into each pot which was filled with steam sterilized field soil, then 18 seeds of cucumber (variety; Tokiwazibai) were sowed in each pot. Eighty percent (80%) wettable powder of the present invention was diluted with water to obtain a suspension, and each pot was drenched with the suspension in an amount of 100 ml. Fifty percent (50%) wettable powder of methyl-1-(butylcarbamoyl) 2-benzimidazol carbamate (hereinafter referred to as Benlate) on the market was used as a control and tested by the same method. After two weeks of planting, degrees attacked by the pathogen was observed and a "percentage of healthy seedlings" was calculated as follows: [formula]

Data set [26] has as its system rice plant (variety: Nihonbare). The data set can be described thus: Phytotoxicity on rice plant (Experimental Example 1). The following applies: 0.25g/box a.i. It counts as in vivo. The method, then: Exterminating test on seedling blight of rice plant Nursery boxes (60 × 30 × 3 cm) were filled with soil which were contaminated with pathogen (Fusarium sp. and Rhizoctonia sp.) The dust in which the present compound was contained in a ratio of 5% by weight was added in the box in a ratio of 5 grams per box and mixed well with soil. Thereafter, seeds of rice plant (variety: Nihonbare) were sowed in drills at a rate of 0.3 liter per box and grown up in a lighting chamber at 17° C. After 7 days from the sowing, the boxes were carried out in the field. Furthermore, 10 days thereafter the observations were made. Four percent (4%) dust of 3-hydroxy-5-methyl isoxazol (hereinafter referred to as hydroxyisoxazol) on the market was used as a control and tested by the same method. The test results are shown in Table 2 with a "percentage of healthy seedlings". The percentage of healthy seedlings was calculated as follows: […]

For data set [27], the system named is cucumber (variety: Azumamidori). The data set can be described thus: Phytotoxicity on cucumber (Experimental Example 3). In kind it is in vivo. To be noted: 1,000 ppm.
[28] abbreviates: 500 ppm, soil drench 100 ml per pot, two weeks.
Setting [29] is: (1) potato-dextrose agar dilution method.
The mark [30] stands for this setting: (2) glucose bouillon medium dilution method.

Data on four compounds can be found in patent US4055640A, “Compositions and methods for controlling the growth of bacteria, fungi and algae using certain derivatives of N-(2,2-dichlorovinyl)salicylamides” (Nippon Kayaku Co., Ltd., priority 1975, dated 1977).

≈ marks a conversion by molar mass, not a printed value. Counter-ions that a name gives are not always drawn. Like-named read-outs stand apart in the source and are kept apart here.

`O=C(NC=C(Cl)Cl)c1ccccc1[O-].O=C(NC=C(Cl)Cl)c1ccccc1[O-].[Zn+2]` [compound 24]: the “Percentage of healthy seedlings” value is listed as 71.3% in [1] (0.25g/box a.i., 5% dust mixed with soil); 100% in data set [2] (1,000 ppm, soil drench 50 ml per pot, 10 days); 47.0% in [3] (setting [28]). In addition, the minimum inhibitory concentration was 10 mc g/ml with Aspergillus niger [4]; 2.5 mc g/ml in the data set on Bacillus subtilis [5]; 2.5 mc g/ml with Cladosporium harbarum [6]; 40 mc g/ml in the data set on Escherichia coli [7]; 10 mc g/ml in the data set on Penicillium Citrinum [8]; 5 mc g/ml in the data set on Staphylococcus aureus [9]. For the same compound, the “Degree of growth inhibition” value in data set [10] (0.0125 %) and in data set [10] (0.025 %) was 3 in each case. The “width of the growth inhibition zone” value in the data set with Aspergillus niger [11] was determined as 5 mm; with Bacillus subtilis [12], 10 mm; in the data set on Penicillium Citrinum [13] it was 5 mm; with Staphylococcus aureus [14], 8 mm.
With `O=C(NC=C(Cl)Cl)c1cc(Cl)ccc1O` [Compound No. 21, sodium salt of N-(2'-2'-dichlorovinyl)-5-chlorosalicylamide], the “Effect Index” value in data set [15] amounted to 80. Further, the Phytotoxicity entry (in data set [16]; in the data set on summer orange seedlings) was “Nil” in each case. Moreover, the Minimum inhibitory amount in the data set with Aspergillus niger [17] (setting [29]) is 10 µg/mL; with Bacillus subtilis [18] (setting [30]), 2.5 µg/mL; in the data set with Cladosporium harbarum [19] (setting [29]) it was 5 µg/mL; in the data set on Escherichia coli [20] (setting [30]) it was 40 µg/mL; in the data set with Penicillium Citrinum [21] (setting [29]), 5 µg/mL; in the data set with Staphylococcus aureus [22] (setting [30]), 2.5 µg/mL. Also, the Degree of propagation result (in data set [23]; in the data set with fungi; with green algae) was “-” each time. In addition, the “inhibition of bacteria, fungi and slime” value in data set [24] was “inhibited for a long time”.
As for `CCCCNC(=O)n1c(NC(=O)OC)nc2ccccc21` [Benlate, methyl-1-(butylcarbamoyl) 2-benzimidazol carbamate, reference compound], in [3] (setting [28]), the pest or weed control at 500 ppm was 45%. Moreover, the Phytotoxicity result in [25] is listed as “Nil”.
As for `CNC(=O)Oc1ccccc1C(=O)NC=C(Cl)Cl` [Compound No. 19, O-(N'-methylcarbamoyl)-N-(2,2-dichlorovinyl) salicylamide], in data set [1] (soil, 408 h, read-out: Percentage of healthy seedlings), the Percentage of healthy seedlings at 0.25 g/box stood at 64.7%. Moreover, the Phytotoxicity entry in [26], in data set [27] and in data set [25] was “Nil” each time. The pest or weed control at 1000 ppm in [2] (Rhizoctonia solani, soil, 240 h, read-out: Percentage of healthy seedlings) was determined as 65%. In addition, in data set [3] (soil), the pest or weed control at 500 ppm was 38%. In addition, the MIC was found to be 20 µg/mL (≈ 69.2 µM) in the data set with Aspergillus niger [17] (Aspergillus niger, read-out: Minimum inhibitory amount); 10 µg/mL (≈ 34.6 µM) with Bacillus subtilis [18] (Bacillus subtilis, read-out: Minimum inhibitory amount); 5 µg/mL (≈ 17.3 µM) with Cladosporium harbarum [19] (Cladosporium, read-out: Minimum inhibitory amount); 60 µg/mL (≈ 208 µM) in the data set with Escherichia coli [20] (Escherichia coli, read-out: Minimum inhibitory amount); 10 µg/mL (≈ 34.6 µM) in the data set with Penicillium Citrinum [21] (Penicillium citrinum, read-out: Minimum inhibitory amount); 10 µg/mL (≈ 34.6 µM) in the data set on Staphylococcus aureus [22] (Staphylococcus aureus, read-out: Minimum inhibitory amount).
